# Laboratory results from patent US7202239B2, “Cyclohexylphenyl carboxamides tocolytic oxytocin receptor antagonists” (Wyeth, priority 2001, dated 2007).
# Molecular target: human V2 vasopressin receptor subtype (Homo sapiens, UniProt P30518)
# Test: Vasopressin binding in CHO cell membranes expressing human vasopressin V2 subtype receptors
# Conditions: 100 nM, [3H]arginine vasopressin
# Excerpt: Vasopressin Binding in Chinese Hamster Ovary Cell Membranes Expressing Human Vasopressin V2 Subtype Receptors
# Chinese Hamster Ovary (CHO) cells stably transfected with the human V2 subtype receptors were obtained from M. Thibonnier, Case Western Reserve University School of Medicine, Cleveland, Ohio.
# A. Passaging and Amplification of Cells:
# CHO cells transfected with the human vasopressin V2 subtype receptors obtained from M. Thibonnier (pZeoSV vector) are allowed to grow to confluency (approx. >90%) in T-150 flasks under sterile conditions, in a cell culture medium of F-12 Nutrient Mixture (HAM) with L-glutamine (Gibco Cat. # 11765-054) containing 15 mM HEPES (Gibco Cat. # 15630-080), 1% antibiotic/antimycotic (add 5 mL 100×, Gibco Cat. # 15240-062 per 500 mL F-12), 250 μg/mL Zeocin (add 1.25 mL of 100 mg/mL Invitrogen R-250-01 per 500 mL F-12) and 10% Fetal Bovine Serum (Qualified, heat inactivated, Gibco Cat. # 16140-063). The medium is removed by aspiration and the cells washed with 10 mL of Hank's Balanced Salt solution (Gibco Cat. # 14175-095). The salt solution is removed by aspiration and the cells trypsinized with 5 mL of trypsin-EDTA (0.05% trypsin, 0.53 mM EDTA-4Na, Gibco Cat. # 25300-070) for 1 min. The trypsin is removed by aspiration and the cells dislodged by tapping. Cell Culture medium (e.g. 30 mL for 1:30 split) is immediately added and mixed well to inactivate trypsin. 1 mL of detached cells is added to new culture flasks containing fresh Cell Culture medium (e.g. into 25 mL per T-150 flask), and mixed gently. The cells are incubated at 37° C. in 5% CO2. The medium is changed at 3 to 4 day interval (or as appropriate). The cells grow to confluency (approx. >75%–95%) within 7–8 days. All steps are done under sterile conditions. B. Membrane Preparation: The cells are washed twice gently with Hank's Balanced Salt solution (e.g. use 10 mL per T-150 flask). The excess solution is removed and the cells bathed for 15–30 min. in an enzyme-free Cell Dissociation Buffer (e.g. use 8 mL Hank's Based, Gibco Cat. # 13150-016 per T-150 flask) until cells are loosened. The contents are transferred to centrifuge tubes (50 mL) kept in an ice bath. All subsequent steps are done at 4° C. The tubes are centrifuged at 300× g for 15 min (1380 rpm on SORVAL, Model RT6000D, using the rotor for 50 mL tubes). The supernatant is discarded and the cells suspended in homogeneizing buffer(10 mM Tris-HCl containing 0.25 M sucrose and 1 mM EDTA, pH 7.4) ensuring that the volume of the buffer is about ten times the volume of the cell pellet. The cells are pooled into a centrifuge tube (50 mL) and homogenized with a Polytron at setting 6 for 10 sec. The homogenate is transferred into a Potter-Elvjehm homogeneizer and homogenized with 3 strokes. The homogenate is centrifuged at 1500×g for 60 min at 4° C. (3100 rpm using SORVAL, model RT6000D, using the rotor for 50 mL tubes). The pellet is discarded. The supernatant is centrifuged at 100,000×g for 60 min. at 4° C. (Beckman L8-80M ultracentrifuge; spin at 37,500 rpm with rotor type 70 Ti for 50 mL tubes; 38,000 rpm with type 80Ti for 15 mL tubes; or 35,800 rpm with rotor type 45Ti). The supernantant is discarded and the pellet suspended in 3 to 4 mL of Tris buffer (50 mM TRIS-HCl, pH 7.4). The protein content is estimated by the Bradford or Lowry method. The volume of the membrane suspension is adjusted with the membrane buffer (50 mM Tris-HCl containing 0.1% BSA and 0.1 mM PMSF) to give 3.0 mg/mL (or as appropriate) of protein. The membranes are aliquoted and stored at −70° C. C. Radioligand Binding Assay: In wells of a 96-well format microtiter plate, is added 90, 110 or 130 μL (to make up a final volume of 200 μL) of assay buffer containing 50 mM of Tris-HCl (pH 7.4), […], 1 mg % aprotinin, 1 mg % leupeptin, 2 mg % 1,10-phenanthroline, 10 mg % trypsin inhibitor, and 0.1 mM PMSF. The inhibitors are added on the day of the experiment. […]
# Sequence of human V2 vasopressin receptor subtype (P30518 whole entry): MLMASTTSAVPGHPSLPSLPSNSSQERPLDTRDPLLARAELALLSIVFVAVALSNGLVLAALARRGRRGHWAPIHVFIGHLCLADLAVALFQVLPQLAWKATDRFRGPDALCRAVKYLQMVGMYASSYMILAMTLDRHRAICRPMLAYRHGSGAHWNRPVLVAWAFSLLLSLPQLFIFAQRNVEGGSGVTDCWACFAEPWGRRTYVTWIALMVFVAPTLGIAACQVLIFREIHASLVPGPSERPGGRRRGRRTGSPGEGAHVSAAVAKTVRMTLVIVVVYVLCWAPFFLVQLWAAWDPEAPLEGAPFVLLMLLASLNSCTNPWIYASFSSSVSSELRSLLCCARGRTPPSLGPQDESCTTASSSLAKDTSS
SMILES,inhibition at 0.1 µM [%],V2 % inhibition at 100 nM [%]
"COC(=O)c1ccc2c(c1)N(C(=O)c1ccc(C3CCCCC3)cc1)Cc1ccc(C(=O)N3CCN(C)CC3)n1C2.Cl [Example 1, Methyl 10-(4-cyclohexylbenzoyl)-3-[(4-methyl-1-piperazinyl)carbonyl]-10,11-dihydro-5H-pyrrolo[2,1-c][1,4]benzodiazepine-8-carboxylate hydrochloride salt]",3,–
"O=C(NCCc1ccccn1)c1ccc2n1Cc1ccccc1N(C(=O)c1ccc(C3CCCCC3)cc1)C2 [Example 49, 10-(4-Cyclohexyl-benzoyl)-N-[2-(2-pyridinyl)ethyl]-10,11-dihydro-5H-pyrrolo[2,1-c][1,4]benzodiazepine-3-carboxamide]",10,–
"O=C(NCc1ccccn1)c1ccc2n1Cc1ccccc1N(C(=O)c1ccc(C3CCCCC3)cc1)C2 [Example 50, 10-(4-Cyclohexyl-benzoyl)-N-(2-pyridinylmethyl)-10,11-dihydro-5H-pyrrolo[2,1-c][1,4]benzodiazepine-3-carboxamide]",15,–
"O=C(NCc1cccnc1)c1ccc2n1Cc1ccccc1N(C(=O)c1ccc(C3CCCCC3)cc1)C2 [Example 51, 10-(4-Cyclohexyl-benzoyl)-N-(3-pyridinylmethyl)-10,11-dihydro-5H-pyrrolo [2,1-c][1,4]benzodiazepine-3-carboxamide]",7,–
"CN(CCc1ccccn1)C(=O)c1ccc2n1Cc1ccccc1N(C(=O)c1ccc(C3CCCCC3)cc1)C2 [Example 52, 10-(4-Cyclohexyl-benzoyl)-N-methyl-N-[2-(2-pyridinyl)-ethyl]-10,11-dihydro-5H-pyrrolo[2,1-c][1,4]benzodiazepine-3-carboxamide]",8,–
"O=C(NCc1ccncc1)c1ccc2n1Cc1ccccc1N(C(=O)c1ccc(C3CCCCC3)cc1)C2 [Example 53, 10-(4-Cyclohexyl-benzoyl)-N-(4-pyridinylmethyl)-10,11-dihydro-5H-pyrrolo[2,1-c][1,4]benzodiazepine-3-carboxamide]",2,–
"O=C(c1ccc2n1Cc1ccccc1N(C(=O)c1ccc(C3CCCCC3)cc1)C2)N1CCN(c2ccncc2)CC1 [Example 54, [10-(4-Cyclohexyl-benzoyl)-10,11-dihydro-5H-pyrrolo[2,1-c][1,4]benzpdiazepin-3-yl][4-(4-pyridinyl)-1-piperazinyl]-methanone]",–,6
"CN(CCc1ccncc1)C(=O)c1ccc2n1Cc1ccccc1N(C(=O)c1ccc(C3CCCCC3)cc1)C2 [Example 55, 10-(4-Cyclohexyl-benzoyl)-N-methyl-N-[2(4-pyridinyl)ethyl]-10,11-dihydro-5H-pyrrolo[2,1-c][1,4]benzodiazepine-3-carboxamide]",6,–
"CN(Cc1cccnc1)C(=O)c1ccc2n1Cc1ccccc1N(C(=O)c1ccc(C3CCCCC3)cc1)C2 [Example 57, 10-(4-Cyclohexyl-benzoyl)-N-methyl-N-(3-pyridinylmethyl)-10,11-dihydro-5H-pyrrolo[2,1-c][1,4]benzodiazepine-3-carboxamide]",4,–

# Next, values leading:
inhibition at 0.1 µM [%],V2 % inhibition at 100 nM [%],SMILES
13,–,"CN1CCC(N(C)C(=O)c2ccc3n2Cc2ccccc2N(C(=O)c2ccc(C4CCCCC4)cc2)C3)CC1 [Example 39, 10-(4-Cyclohexyl-benzoyl)-N-methyl-N-(1-methyl-4-piperidinyl)-10,11-dihydro-5H-pyrrolo[2,1-c][1,4]benzodiazepine-3-carboxamide]"
-3,–,"CN1CCC(N(C)C(=O)c2ccc3n2Cc2ccccc2N(C(=O)c2ccc(C4CCCCC4)cc2)C3)C1 (stereo not drawn) [Example 40, 10-(4-Cyclohexyl-benzoyl)-N-methyl-N-(1-methyl-3-pyrrolidinyl)-10,11-dihydro-5H-pyrrolo[2,1-c][1,4]benzodiazepine-3-carboxamide]"
6,–,"CN(C)CCN1CCN(C(=O)c2ccc3n2Cc2ccccc2N(C(=O)c2ccc(C4CCCCC4)cc2)C3)CC1 [Example 41, [10-(4-Cyclohexyl-benzoyl)-10,11-dihydro-5H-pyrrolo[2,1-c][1,4]benzodiazepin-3-yl]{4-[2-(dimethylamino)ethyl]-1-piperazinyl}methanone]"
4,–,"O=C(c1ccc2n1Cc1ccccc1N(C(=O)c1ccc(C3CCCCC3)cc1)C2)N1CCN(CCN2CCOCC2)CC1 [Example 42, [10(4-Cyclohexyl-benzoyl)-10,11-dihydro-5H-pyrrolo[2,1-c][1,4]benzodiazepin-3-yl]{4-[2-(4-morpholinyl)ethyl]-1-piperazinyl}methanone]"
8,–,"C=CCN1CCN(C(=O)c2ccc3n2Cc2ccccc2N(C(=O)c2ccc(C4CCCCC4)cc2)C3)CC1 [Example 43, (4-Allyl-1-piperazinyl)[10-(4-cyclohexyl-benzoyl)-10,11-dihydro-5H-pyrrolo[2,1-c][1,4]benzodiazepin-3-yl]methanone]"
1,–,"CC(C)N1CCN(C(=O)c2ccc3n2Cc2ccccc2N(C(=O)c2ccc(C4CCCCC4)cc2)C3)CC1 [Example 44, [10-(4-Cyclohexyl-benzoyl)-10,11-dihydro-5H-pyrrolo[2,1-c][1,4]benzodiazepin-3-yl](4-isopropyl-1-piperazinyl)methanone]"
10,–,"CN(C)CCCN1CCN(C(=O)c2ccc3n2Cc2ccccc2N(C(=O)c2ccc(C4CCCCC4)cc2)C3)CC1 [Example 45, [10-(4-Cyclohexyl-benzoyl)-10,11-dihydro-5H-pyrrolo[2,1-c][1,4]benzodiazepin-3-yl]{4-[3-(dimethylamino)propyl]-1-piperazinyl}methanone]"
–,14,"O=C(c1ccc(C2CCCCC2)cc1)N1Cc2ccc(C(=O)N3CCC[C@H]3CN3CCCC3)n2Cc2ccccc21 [Example 46, [10-(4-Cyclohexyl-benzoyl)-10,11-dihydro-5H-pyrrolo[2,1-c][1.4]benzodiazepin-3-yl][(2S)-2-(1-pyrrolidinylmethyl)pyrrolidinyl]methanone]"
–,0,"CN(C)[C@@H]1CCN(C(=O)c2ccc3n2Cc2ccccc2N(C(=O)c2ccc(C4CCCCC4)cc2)C3)C1 [Example 47, [10-(4-Cyclohexyl-benzoyl)-10,11-dihydro-5H-pyrrolo[2,1-C][1,4]benzodiazepin-3-yl][(3R)-3-(dimethylamino)pyrrolidinyl]methanone]"
–,14,"O=C(c1ccc2n1Cc1ccccc1N(C(=O)c1ccc(C3CCCCC3)cc1)C2)N1CCN(CCO)CC1 [Example 48, [10-(4-Cyclohexyl-benzoyl)-10,11-dihydro-5H-pyrrolo[2,1-c][1,4]benzodiazepin-3-y][4-(2-hydroxyethyl)-1-piperazinyl]methanone]"
-2,–,"O=C(c1ccc(C2CCCCC2)cc1)N1Cc2ccc(C(=O)n3ccnc3)n2Cc2ccccc21 [Example 56, 1H-Imidazol-1-yl-[10-(4-cyclohexyl-benzoyl)-10,11-dihydro-5H-pyrrolo[2,1-c][1,4]benzodiazepin-3-yl]-methanone]"

# Tested on: not given
# Test: not given
# Conditions: not given
row,melting point,SMILES
1,203 °C (dec.),"COC(=O)c1ccc2c(c1)N(C(=O)c1ccc(C3CCCCC3)cc1)Cc1ccc(C(=O)N3CCN(C)CC3)n1C2.Cl [Example 1, Methyl 10-(4-cyclohexylbenzoyl)-3-[(4-methyl-1-piperazinyl)carbonyl]-10,11-dihydro-5H-pyrrolo[2,1-c][1,4]benzodiazepine-8-carboxylate hydrochloride salt]"
